Laboratory results published in ChEMBL document CHEMBL1157954, “Cycloleonuripeptides E and F, cyclic nonapeptides from Leonurus heterophyllus” (2006).
Residues, ends and D or L forms follow the SMILES beside them.

Tested on: Aorta
Test: Vasorelaxation activity in Wistar rat thoracic aorta assessed as inhibition of norepinephrine-induced contraction at 10^-4 M
Format: functional
Design: scale not given: the % may be the effect or the level left

SMILES	Activity
CC(C)C[C@@H]1NC(=O)[C@@H]2CCCN2C(=O)[C@H](Cc2ccc(O)cc2)NC(=O)CNC(=O)[C@@H]2CCCN2C(=O)[C@@H]2CCCN2C(=O)[C@H](Cc2ccc(O)cc2)NC(=O)[C@H](Cc2ccccc2)NC(=O)[C@@H]2CCCN2C1=O [CYCLOLEONURIPEPTIDE F] (cyclo(FYPPGYPLP))	40%
CC[C@H](C)[C@@H]1NC(=O)[C@@H]2CCCN2C(=O)[C@H](C)NC(=O)[C@@H]2CCCN2C(=O)[C@H]([C@@H](C)O)NC(=O)[C@H](Cc2ccccc2)NC(=O)[C@H](C)NC(=O)[C@H](C)NC(=O)[C@H](C(C)C)NC1=O [CYCLOLEONURIPEPTIDE E] (cyclo(AAFTPAPIV))	32%
